Results taken from PubChem BioAssay (NCI).
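A five-concentration, 48-hour dose response in 96-well plates underlies each endpoint, interpolated linearly between surrounding concentrations. The concentration for 50% growth inhibition is given as GI50. TGI marks complete inhibition of growth.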

Key:
Experiment in all cases: growth of human tumour cells (NCI), 48 h
[1] = tested on: MDA-MB-468 breast
[2] = tested on: 786-0 renal
[3] = tested on: A498 renal
[4] = tested on: A549 NSCLC
[5] = tested on: ACHN renal
[6] = tested on: BT-549 breast
[7] = tested on: CAKI-1 renal
[8] = tested on: CCRF-CEM leukemia
[9] = tested on: COLO 205 colon
[10] = tested on: DU-145 prostate
[11] = tested on: EKVX NSCLC
[12] = tested on: HCC-2998 colon
[13] = tested on: HCT-116 colon
[14] = tested on: HCT-15 colon
[15] = tested on: HL-60(TB) leukemia
[16] = tested on: HOP-62 NSCLC
[17] = tested on: HOP-92 NSCLC
[18] = tested on: HS 578T breast
[19] = tested on: HT29 colon
[20] = tested on: IGROV1 ovarian
[21] = tested on: K-562 leukemia
[22] = tested on: KM12 colon
[23] = tested on: LOX IMVI melanoma
[24] = tested on: M14 melanoma
[25] = tested on: MALME-3M melanoma
[26] = tested on: MCF7 breast
[27] = tested on: MDA-MB-231 breast
[28] = tested on: MDA-MB-435
[29] = tested on: MOLT-4 leukemia
[30] = tested on: NCI-H226 lung
[31] = tested on: NCI-H23 lung
[32] = tested on: NCI-H460 lung
[33] = tested on: NCI-H522 lung
[34] = tested on: OVCAR-3 ovarian
[35] = tested on: OVCAR-4 ovarian
[36] = tested on: OVCAR-5 ovarian
[37] = tested on: OVCAR-8 ovarian
[38] = tested on: PC-3 prostate
[39] = tested on: RPMI-8226 leukemia
[40] = tested on: RXF 393 renal
[41] = tested on: SF-268 CNS
[42] = tested on: SF-295 CNS
[43] = tested on: SF-539 CNS
[44] = tested on: SK-MEL-2 melanoma
[45] = tested on: SK-MEL-28 melanoma
[46] = tested on: SK-MEL-5 melanoma
[47] = tested on: SK-OV-3 ovarian
[48] = tested on: SN12C renal
[49] = tested on: SNB-19 CNS
[50] = tested on: SR leukemia
[51] = tested on: SW-620 colon
[52] = tested on: T-47D breast
[53] = tested on: TK-10 renal
[54] = tested on: U251 CNS
[55] = tested on: UACC-257 melanoma
[56] = tested on: UACC-62 melanoma
[57] = tested on: UO-31 renal

## Cn1cnc([N+](=O)[O-])c1Sc1ncn[nH]1
[1]
  GI50: 21 µM
  TGI: > 100 µM

## CCO/C=N/C1=C(C#N)C(c2ccc(OC)cc2)c2sc3c(C)cccc3c2O1 (stereo unspecified)
[1]
  GI50: 0.276 µM
  TGI: 5.69 µM

## CCN(CC)CCSCCCNc1c2ccc(Cl)cc2nc2ccc(OC)cc12
[1]
  GI50: 1.5 µM
  TGI: 3.05 µM

## O=S(=O)(NCCNc1nccc(-c2c(-c3ccc(F)cc3)nc3sccn23)n1)c1ccccc1
[1]
  GI50: 4.34 µM
  TGI: > 100 µM

## CCn1c2ccccc2c2cc(C(O)c3cccc4ncccc34)ccc21 (stereo unspecified)
[1]
  GI50: 0.0326 µM
  TGI: 0.849 µM

## Oc1ccc(Cl)cc1CNc1nc2ccccc2[nH]1
[1]
  GI50: 5.72 µM
  TGI: 21.9 µM

## COc1cc(/C=C/C(=O)c2cnn(-c3cc(=O)[nH]c4ccc(C)cc34)c2C)cc(OC)c1OC
[2]
  GI50: 3.52 µM
  TGI: 14.6 µM
[3]
  GI50: 18 µM
  TGI: 35.9 µM
[4]
  GI50: 3.17 µM
  TGI: 11.2 µM
[5]
  GI50: 1.72 µM
  TGI: 3.79 µM
[6]
  GI50: 2.43 µM
  TGI: 8.55 µM
[7]
  GI50: 3.75 µM
  TGI: 18.6 µM
[8]
  GI50: 2.28 µM
  TGI: 8.76 µM
[9]
  GI50: 2.77 µM
  TGI: 8.8 µM
[10]
  GI50: 3.39 µM
  TGI: 12.6 µM
[11]
  GI50: 2.84 µM
  TGI: 12.2 µM
[12]
  GI50: 2.98 µM
  TGI: 9.14 µM
[13]
  GI50: 3.63 µM
  TGI: 12.9 µM
[14]
  GI50: 1.92 µM
  TGI: 5.01 µM
[15]
  GI50: 2.29 µM
  TGI: 11.3 µM
[16]
  GI50: 3.56 µM
  TGI: 12.5 µM
[17]
  GI50: 4.34 µM
  TGI: 23.4 µM
[18]
  GI50: 3.56 µM
  TGI: > 100 µM
[19]
  GI50: 3.07 µM
  TGI: 10 µM
[20]
  GI50: 2.41 µM
  TGI: 7.14 µM
[21]
  GI50: 2.24 µM
  TGI: > 100 µM
[22]
  GI50: 3.24 µM
  TGI: 10.6 µM
[23]
  GI50: 1.54 µM
  TGI: 3.76 µM
[24]
  GI50: 3.16 µM
  TGI: 13.2 µM
[25]
  GI50: 3.89 µM
  TGI: 16.7 µM
[26]
  GI50: 2.7 µM
  TGI: 11.4 µM
[27]
  GI50: 3.1 µM
  TGI: 11.9 µM
[28]
  GI50: 3.02 µM
  TGI: 12.1 µM
[1]
  GI50: 1.58 µM
  TGI: 3.63 µM
[29]
  GI50: 2.53 µM
  TGI: 10.4 µM
[30]
  GI50: 2.64 µM
  TGI: 7.79 µM
[31]
  GI50: 1.89 µM
  TGI: 4.3 µM
[32]
  GI50: 1.86 µM
  TGI: 4.38 µM
[33]
  GI50: 2.65 µM
  TGI: 8.02 µM
[34]
  GI50: 2.79 µM
  TGI: 7.95 µM
[35]
  GI50: 3.85 µM
  TGI: 48.8 µM
[36]
  GI50: 3.25 µM
  TGI: 11.6 µM
[37]
  GI50: 2 µM
  TGI: 4.63 µM
[38]
  GI50: 6.04 µM
  TGI: 26.8 µM
[39]
  GI50: 2.02 µM
  TGI: 7.59 µM
[40]
  GI50: 2.09 µM
  TGI: 5.13 µM
[41]
  GI50: 3.43 µM
  TGI: 14.8 µM
[42]
  GI50: 3 µM
  TGI: 11.1 µM
[43]
  GI50: 2.11 µM
  TGI: 4.79 µM
[44]
  GI50: 2.9 µM
  TGI: 11 µM
[45]
  GI50: 3.7 µM
  TGI: 13.2 µM
[46]
  GI50: 2.39 µM
  TGI: 7.34 µM
[47]
  GI50: 3.91 µM
  TGI: 13.4 µM
[48]
  GI50: 2.57 µM
  TGI: 10.2 µM
[49]
  GI50: 3.11 µM
  TGI: 12 µM
[50]
  GI50: 1.76 µM
  TGI: 11.3 µM
[51]
  GI50: 3.06 µM
  TGI: 10.5 µM
[52]
  GI50: 2.57 µM
  TGI: 16.2 µM
[53]
  GI50: 3.54 µM
  TGI: 11.5 µM
[54]
  GI50: 2.42 µM
  TGI: 8.48 µM
[55]
  GI50: 4.85 µM
  TGI: 20.4 µM
[56]
  GI50: 2.85 µM
  TGI: 10.9 µM
[57]
  GI50: 2.98 µM
  TGI: 13.1 µM
